Tested on: 496974-208-R-J2-PDC complex spheroids, growth % test/control
Assay: Anticancer human tumor 496974-208-R-J2-PDC patient-derived pancreatic carcinoma cell line growth inhibition [CLK]
Settings: for IC50: curve of first compound; for viability, T/C: stronger effect = lower value
Outline: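 Multi-cell-type spheroids combined patient-derived tumor cells with HUVEC endothelial cells and human mesenchymal stem cells. Paired agents were dosed in half-log steps down from about clinical Cmax, or from 10 microM where Cmax was unknown.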

[1] = second compound 0.0316 µM, first compound 0.0316 µM
[2] = second compound 0.0316 µM, first compound 0.1 µM
[3] = second compound 0.0316 µM, first compound 0.316 µM
[4] = second compound 0.0316 µM, first compound 1 µM
[5] = second compound 0.0316 µM, first compound 3.16 µM
[6] = second compound 0.0316 µM, first compound 10 µM
[7] = second compound 0.1 µM, first compound 0.0316 µM
[8] = second compound 0.1 µM, first compound 0.1 µM
[9] = second compound 0.1 µM, first compound 0.316 µM
[10] = second compound 0.1 µM, first compound 1 µM
[11] = second compound 0.1 µM, first compound 3.16 µM
[12] = second compound 0.1 µM, first compound 10 µM
[13] = second compound 0.316 µM, first compound 0.0316 µM
[14] = second compound 0.316 µM, first compound 0.1 µM
[15] = second compound 0.316 µM, first compound 0.316 µM
[16] = second compound 0.316 µM, first compound 1 µM
[17] = second compound 0.316 µM, first compound 3.16 µM
[18] = second compound 0.316 µM, first compound 10 µM
[19] = second compound 1 µM, first compound 0.0316 µM
[20] = second compound 1 µM, first compound 0.1 µM
[21] = second compound 1 µM, first compound 0.316 µM
[22] = second compound 1 µM, first compound 1 µM
[23] = second compound 1 µM, first compound 3.16 µM
[24] = second compound 1 µM, first compound 10 µM
[25] = second compound 3.16 µM, first compound 0.0316 µM
[26] = second compound 3.16 µM, first compound 0.1 µM
[27] = second compound 3.16 µM, first compound 0.316 µM
[28] = second compound 3.16 µM, first compound 1 µM
[29] = second compound 3.16 µM, first compound 3.16 µM
[30] = second compound 3.16 µM, first compound 10 µM
[31] = second compound 10 µM, first compound 0.0316 µM
[32] = second compound 10 µM, first compound 0.1 µM
[33] = second compound 10 µM, first compound 0.316 µM
[34] = second compound 10 µM, first compound 1 µM
[35] = second compound 10 µM, first compound 3.16 µM
[36] = second compound 10 µM, first compound 10 µM
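Further: spheroids exposed to the drugs for 7 days before readout.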
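Wherever viability, T/C is given: 100% = DMSO vehicle control wells.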

## C#Cc1c(F)ccc2cc(O)cc(-c3ncc4c(N5CC6CCC(C5)N6)nc(OCC56CCCN5CC(F)C6)nc4c3F)c12 (stereo unspecified) + CNC(=O)c1ccc(Nc2nc(OC3CCCC3)c3c(-c4ccc5nc(C)oc5c4)c[nH]c3n2)c(OC)c1
Second compound 0.0316 µM
  IC50: 0.204 µM
Second compound 0.1 µM
  IC50: 0.0335 µM
Second compound 0.316 µM
  IC50: < 0.0316 µM
Second compound 1 µM
  IC50: < 0.0316 µM
Second compound 3.16 µM
  IC50: < 0.0316 µM
Second compound 10 µM
  IC50: < 0.0316 µM
[1]
  viability, T/C: 62.4%
[2]
  viability, T/C: 56.8%
[3]
  viability, T/C: 46.1%
[4]
  viability, T/C: 42.2%
[5]
  viability, T/C: 42.9%
[6]
  viability, T/C: 41%
[7]
  viability, T/C: 57.7%
[8]
  viability, T/C: 46.7%
[9]
  viability, T/C: 35%
[10]
  viability, T/C: 37.2%
[11]
  viability, T/C: 34.6%
[12]
  viability, T/C: 43.1%
[13]
  viability, T/C: 45.2%
[14]
  viability, T/C: 40.2%
[15]
  viability, T/C: 37.2%
[16]
  viability, T/C: 33%
[17]
  viability, T/C: 33.5%
[18]
  viability, T/C: 31%
[19]
  viability, T/C: 37.8%
[20]
  viability, T/C: 32.5%
[21]
  viability, T/C: 31.2%
[22]
  viability, T/C: 28.1%
[23]
  viability, T/C: 31.3%
[24]
  viability, T/C: 28.4%
[25]
  viability, T/C: 33.5%
[26]
  viability, T/C: 30.4%
[27]
  viability, T/C: 27.2%
[28]
  viability, T/C: 25.8%
[29]
  viability, T/C: 27.6%
[30]
  viability, T/C: 23.8%
[31]
  viability, T/C: 30.1%
[32]
  viability, T/C: 27.9%
[33]
  viability, T/C: 27%
[34]
  viability, T/C: 22.8%
[35]
  viability, T/C: 23.5%
[36]
  viability, T/C: 21.2%

## C=C(F)C(=O)N1CCN(c2nc(OCC3CCCN3C)nc3c2CCN(c2cccc4cccc(Cl)c24)C3)CC1CC#N (stereo unspecified) + CNC(=O)c1ccc(Nc2nc(OC3CCCC3)c3c(-c4ccc5nc(C)oc5c4)c[nH]c3n2)c(OC)c1
Second compound 0.0316 µM
  IC50: 5.46 µM
Second compound 0.1 µM
  IC50: 4.52 µM
Second compound 0.316 µM
  IC50: 4.15 µM
Second compound 1 µM
  IC50: 2.74 µM
Second compound 3.16 µM
  IC50: 2.32 µM
Second compound 10 µM
  IC50: 0.549 µM
[1]
  viability, T/C: 89%
[2]
  viability, T/C: 91.7%
[3]
  viability, T/C: 90.5%
[4]
  viability, T/C: 90.6%
[5]
  viability, T/C: 91.4%
[6]
  viability, T/C: 4.85%
[7]
  viability, T/C: 79.2%
[8]
  viability, T/C: 73.6%
[9]
  viability, T/C: 72.9%
[10]
  viability, T/C: 76.1%
[11]
  viability, T/C: 71.7%
[12]
  viability, T/C: 1.82%
[13]
  viability, T/C: 80.4%
[14]
  viability, T/C: 72.9%
[15]
  viability, T/C: 73.5%
[16]
  viability, T/C: 76.2%
[17]
  viability, T/C: 63.8%
[18]
  viability, T/C: 5.04%
[19]
  viability, T/C: 69.5%
[20]
  viability, T/C: 68.5%
[21]
  viability, T/C: 64.7%
[22]
  viability, T/C: 64.8%
[23]
  viability, T/C: 47.9%
[24]
  viability, T/C: 0.69%
[25]
  viability, T/C: 59.8%
[26]
  viability, T/C: 59.4%
[27]
  viability, T/C: 55.8%
[28]
  viability, T/C: 56.9%
[29]
  viability, T/C: 47.5%
[30]
  viability, T/C: 1.05%
[31]
  viability, T/C: 56.4%
[32]
  viability, T/C: 52.2%
[33]
  viability, T/C: 48.4%
[34]
  viability, T/C: 45.4%
[35]
  viability, T/C: 39.8%
[36]
  viability, T/C: 1.59%

## CC(CO)NC(=O)c1cc(-c2ccc(Cl)cc2)nn(-c2cnn(C)c2)c1=O (stereo unspecified) + CNC(=O)c1ccc(Nc2nc(OC3CCCC3)c3c(-c4ccc5nc(C)oc5c4)c[nH]c3n2)c(OC)c1
Second compound 0.0316 µM
  IC50: > 10 µM
Second compound 0.1 µM
  IC50: 6.65 µM
Second compound 0.316 µM
  IC50: 6.97 µM
Second compound 1 µM
  IC50: 3.29 µM
Second compound 3.16 µM
  IC50: 5.16 µM
Second compound 10 µM
  IC50: 4.14 µM
[1]
  viability, T/C: 103%
[2]
  viability, T/C: 91.4%
[3]
  viability, T/C: 92.8%
[4]
  viability, T/C: 90.4%
[5]
  viability, T/C: 89.1%
[6]
  viability, T/C: 55%
[7]
  viability, T/C: 87.3%
[8]
  viability, T/C: 74.5%
[9]
  viability, T/C: 80.8%
[10]
  viability, T/C: 63.1%
[11]
  viability, T/C: 65.4%
[12]
  viability, T/C: 42.6%
[13]
  viability, T/C: 79.2%
[14]
  viability, T/C: 67.3%
[15]
  viability, T/C: 72.6%
[16]
  viability, T/C: 69%
[17]
  viability, T/C: 59.4%
[18]
  viability, T/C: 44.9%
[19]
  viability, T/C: 71%
[20]
  viability, T/C: 71.8%
[21]
  viability, T/C: 63.5%
[22]
  viability, T/C: 59.7%
[23]
  viability, T/C: 50.9%
[24]
  viability, T/C: 37.9%
[25]
  viability, T/C: 62.4%
[26]
  viability, T/C: 57.9%
[27]
  viability, T/C: 52%
[28]
  viability, T/C: 58.4%
[29]
  viability, T/C: 56.6%
[30]
  viability, T/C: 41.1%
[31]
  viability, T/C: 55.5%
[32]
  viability, T/C: 54.8%
[33]
  viability, T/C: 49.8%
[34]
  viability, T/C: 47.1%
[35]
  viability, T/C: 56.5%
[36]
  viability, T/C: 41%

From PubChem BioAssay AID2060615 (Molecular Pharmacology Branch, DTP, NCI, 2025)
